Experimental data: ChEMBL document CHEMBL1201862, “PubChem BioAssay data set” (2004)
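Interpolation was linear, between the two tested concentrations surrounding the appropriate level; five concentrations were tested over 48 hours in 96-well plates. GI50 = concentration required for 50% inhibition of growth.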 Active and inactive are the calls of the source. Cut-off read from the data, not from the text of the source: active = GI50 up to about 1.1 µM and inactive = higher.

Legend:
Assay in all cases: NCI tumour cell line growth inhibition, 48 h
COLO 205 = system: COLO 205
HCC 2998 = system: HCC 2998
HOP-92 = system: HOP-92
HT-29 = system: HT-29
LOX IMVI = system: LOX IMVI
M14 = system: M14
MDA-MB-231 = system: MDA-MB-231
Malme-3M = system: Malme-3M
NCI-H23 = system: NCI-H23
NCI-H522 = system: NCI-H522
NCI/ADR-RES = system: NCI/ADR-RES
OVCAR-8 = system: OVCAR-8
RPMI-8226 = system: RPMI-8226
SF-268 = system: SF-268
SF-539 = system: SF-539
SK-MEL-28 = system: SK-MEL-28
SK-MEL-2 = system: SK-MEL-2
SNB-19 = system: SNB-19
UACC-257 = system: UACC-257
UO-31 = system: UO-31

Structure (SMILES) | GI50 (COLO 205) | GI50 (HCC 2998) | GI50 (HOP-92) | GI50 (HT-29) | GI50 (LOX IMVI) | GI50 (M14) | GI50 (MDA-MB-231) | GI50 (Malme-3M) | GI50 (NCI-H23) | GI50 (NCI-H522) | GI50 (NCI/ADR-RES) | GI50 (OVCAR-8) | GI50 (RPMI-8226) | GI50 (SF-268) | GI50 (SF-539) | GI50 (SK-MEL-28) | GI50 (SK-MEL-2) | GI50 (SNB-19) | GI50 (UACC-257) | GI50 (UO-31)
COc1cc(C(=O)c2cocc2C(=O)c2ccc3c(c2)OCO3)cc(OC)c1OC | 4.91 µM (inactive) | 3.72 µM (inactive) | 2.69 µM (inactive) | 0.244 µM (active) | 0.483 µM (active) | 1 µM (active) | 2.65 µM (inactive) | 0.312 µM (active) | 0.826 µM (active) | 0.268 µM (active) | 0.142 µM (active) | 1.35 µM (inactive) | 0.628 µM (active) | 0.802 µM (active) | 0.399 µM (active) | 1.46 µM (inactive) | 0.619 µM (active) | 0.933 µM (active) | 0.531 µM (active) | 1.58 µM (inactive)
COC(=O)c1cc2c(n1S(=O)(=O)c1ccc(C)cc1)C(=O)C(=O)c1[nH]cc(C(=O)OCc3ccccc3)c1-2 | 0.191 µM (active) | 0.218 µM (active) | 0.236 µM (active) | 0.273 µM (active) | 0.0553 µM (active) | 0.0621 µM (active) | 0.0274 µM (active) | 0.0321 µM (active) | 0.0649 µM (active) | 0.094 µM (active) | 0.583 µM (active) | 0.0989 µM (active) | 0.0883 µM (active) | 0.221 µM (active) | 0.136 µM (active) | 0.107 µM (active) | 0.112 µM (active) | 0.191 µM (active) | 0.0322 µM (active) | 0.211 µM (active)
CCCCCCNCCCNc1c2ccccc2nc2cccc([N+](=O)[O-])c12 | 0.00347 µM (active) | 0.00665 µM (active) | 0.0211 µM (active) | 0.00528 µM (active) | 0.0193 µM (active) | 0.0119 µM (active) | 0.0229 µM (active) | 0.0206 µM (active) | 0.0116 µM (active) | 0.0121 µM (active) | 0.33 µM (active) | 0.012 µM (active) | 0.00247 µM (active) | 0.0163 µM (active) | 0.116 µM (active) | 0.158 µM (active) | 0.0181 µM (active) | 0.0845 µM (active) | 0.101 µM (active) | 0.122 µM (active)
Cc1ccccc1C(=O)N1CCc2c([nH]c3ccccc23)C1 | 17.4 µM (inactive) | 18.5 µM (inactive) | 15.1 µM (inactive) | 18.8 µM (inactive) | 21.9 µM (inactive) | 19.4 µM (inactive) | 12.7 µM (inactive) | 24.8 µM (inactive) | 21.4 µM (inactive) | 19.1 µM (inactive) | 22.6 µM (inactive) | 27 µM (inactive) | 21.2 µM (inactive) | 35.6 µM (inactive) | 21.5 µM (inactive) | 28.9 µM (inactive) | 12.8 µM (inactive) | 41.7 µM (inactive) | 23.9 µM (inactive) | 31.2 µM (inactive)
C[C@H]1[C@H](C)N(Cc2ccccc2)P(=O)(C(O)/C=C/c2ccccc2)N1Cc1ccccc1 (stereo not given in full) | 6.64 µM (inactive) | 6.3 µM (inactive) | 7.18 µM (inactive) | 5.24 µM (inactive) | 6.76 µM (inactive) | 4.62 µM (inactive) | 6.12 µM (inactive) | 5.58 µM (inactive) | 9.84 µM (inactive) | 5.83 µM (inactive) | 10.4 µM (inactive) | 8.53 µM (inactive) | 6.22 µM (inactive) | 6.84 µM (inactive) | 5.07 µM (inactive) | 8.51 µM (inactive) | 4.7 µM (inactive) | 12 µM (inactive) | 5.42 µM (inactive) | 5.27 µM (inactive)
COC(=O)c1ccccc1C1CN=NC12Cc1c(ccc3c1CCC3)C2=O (stereo not given) | 47.8 µM (inactive) | > 100 µM (inactive) | 27.4 µM (inactive) | 43.5 µM (inactive) | 23.8 µM (inactive) | 46.5 µM (inactive) | 67.8 µM (inactive) | > 100 µM (inactive) | 66.2 µM (inactive) | 0.635 µM (active) | 31.1 µM (inactive) | 92.5 µM (inactive) | 28.8 µM (inactive) | > 100 µM (inactive) | > 100 µM (inactive) | 95.1 µM (inactive) | 35.1 µM (inactive) | > 100 µM (inactive) | 15.7 µM (inactive) | 80.5 µM (inactive)
CCCCCC/C=C1\CCC(CN(C)C)C1=O (stereo not given) | 3.15 µM (inactive) | 5.74 µM (inactive) | 11.4 µM (inactive) | 4.81 µM (inactive) | 1.89 µM (inactive) | 4.73 µM (inactive) | 6.43 µM (inactive) | 7.23 µM (inactive) | 8.73 µM (inactive) | 2.85 µM (inactive) | 7.38 µM (inactive) | 4.44 µM (inactive) | 0.641 µM (active) | 5.35 µM (inactive) | 15.1 µM (inactive) | 4.14 µM (inactive) | 13 µM (inactive) | 15.4 µM (inactive) | 7.71 µM (inactive) | 15.4 µM (inactive)
COc1ccc(CCCCNCc2cccc(CNCCCCc3ccc(OC)cc3)c2)cc1 | 2.18 µM (inactive) | 0.308 µM (active) | 1.44 µM (inactive) | 1.82 µM (inactive) | 1.6 µM (inactive) | 1.69 µM (inactive) | 1.87 µM (inactive) | 2 µM (inactive) | 1.78 µM (inactive) | 1.88 µM (inactive) | 1.8 µM (inactive) | 1.8 µM (inactive) | 2.67 µM (inactive) | 1.76 µM (inactive) | 1.96 µM (inactive) | 1.84 µM (inactive) | 1.91 µM (inactive) | 1.71 µM (inactive) | 2.59 µM (inactive) | 1.35 µM (inactive)
O=C(O)CC1NC(/C(=C/c2ccccc2)NC(=O)c2ccccc2)OC1=O (stereo not given) | 19.8 µM (inactive) | 37.9 µM (inactive) | > 100 µM (inactive) | 29.8 µM (inactive) | 16.2 µM (inactive) | 17.1 µM (inactive) | 27.4 µM (inactive) | 36.9 µM (inactive) | 42.7 µM (inactive) | 16.5 µM (inactive) | 21.7 µM (inactive) | 25.9 µM (inactive) | 20.2 µM (inactive) | 36.3 µM (inactive) | 21 µM (inactive) | 24.3 µM (inactive) | 27.6 µM (inactive) | 25.9 µM (inactive) | > 100 µM (inactive) | 23.8 µM (inactive)
COc1cc2cc(C(=O)N3CC(CCl)c4ccc([N+](C)(C)Cc5ccccc5[N+](=O)[O-])cc43)[nH]c2c(OC)c1OC (stereo not given) | 2 µM (inactive) | 1.27 µM (inactive) | 2.21 µM (inactive) | 0.962 µM (active) | 2.31 µM (inactive) | 1.67 µM (inactive) | 3.94 µM (inactive) | 1.73 µM (inactive) | 0.762 µM (active) | 0.198 µM (active) | 1.76 µM (inactive) | 3.44 µM (inactive) | 1.3 µM (inactive) | 1.71 µM (inactive) | 1.63 µM (inactive) | 2.46 µM (inactive) | 1.89 µM (inactive) | 2.36 µM (inactive) | 1.66 µM (inactive) | 1.33 µM (inactive)
COc1ccc2nc3ccc(OC)cc3c([S+]([O-])Cc3ccc([N+](=O)[O-])cc3)c2c1 (stereo not given) | 2.92 µM (inactive) | 17.5 µM (inactive) | 3.13 µM (inactive) | 2.58 µM (inactive) | 5.16 µM (inactive) | 7.87 µM (inactive) | 15.7 µM (inactive) | 2.37 µM (inactive) | 6.7 µM (inactive) | 1.73 µM (inactive) | 21.2 µM (inactive) | 3.39 µM (inactive) | 2.61 µM (inactive) | 22.1 µM (inactive) | 2.81 µM (inactive) | 5.97 µM (inactive) | 17.9 µM (inactive) | 21.3 µM (inactive) | 3.9 µM (inactive) | 6.44 µM (inactive)
O=C1NC(N2CCCC(CO)C2)=N/C1=C\c1cccs1 (stereo not given) | > 100 µM (inactive) | > 100 µM (inactive) | > 100 µM (inactive) | > 100 µM (inactive) | > 100 µM (inactive) | > 100 µM (inactive) | > 100 µM (inactive) | > 100 µM (inactive) | > 100 µM (inactive) | > 100 µM (inactive) | > 100 µM (inactive) | > 100 µM (inactive) | > 100 µM (inactive) | > 100 µM (inactive) | > 100 µM (inactive) | > 100 µM (inactive) | > 100 µM (inactive) | > 100 µM (inactive) | > 100 µM (inactive) | > 100 µM (inactive)
CC(=O)/C(=C/NC(=S)Nc1ccccc1)C(=O)Nc1ccccc1C | > 100 µM (inactive) | > 100 µM (inactive) | 99.1 µM (inactive) | 77.8 µM (inactive) | > 100 µM (inactive) | > 100 µM (inactive) | 29.4 µM (inactive) | > 100 µM (inactive) | > 100 µM (inactive) | > 100 µM (inactive) | > 100 µM (inactive) | > 100 µM (inactive) | > 100 µM (inactive) | 91 µM (inactive) | > 100 µM (inactive) | > 100 µM (inactive) | > 100 µM (inactive) | > 100 µM (inactive) | > 100 µM (inactive) | 41.8 µM (inactive)
Cc1ccc2c(O)cc(-c3ccc4ccccc4c3)nc2n1 | 2.11 µM (inactive) | 10.8 µM (inactive) | 1.5 µM (inactive) | 3.75 µM (inactive) | 5.14 µM (inactive) | 8.89 µM (inactive) | 14.3 µM (inactive) | 4.46 µM (inactive) | 4.41 µM (inactive) | 3.32 µM (inactive) | 4.58 µM (inactive) | 5.82 µM (inactive) | 4.48 µM (inactive) | 6.9 µM (inactive) | 4.74 µM (inactive) | 5.9 µM (inactive) | 5.97 µM (inactive) | 9.48 µM (inactive) | 5.58 µM (inactive) | 8 µM (inactive)
